Patent US11976058B2, “Aromatic derivatives, preparation methods, and medical uses thereof” (Bioardis LLC, priority 2019, dated 2024)

These compounds were tested against T1, human FGFR4 (Homo sapiens, UniProt P22455) (assay: FGFR4 enzymatic assay (HTRF KinEASE-TK)). Conditions: wild-type human FGFR4 cytoplasmic domain (460-802), GST-tag; 60 min preincubation at 25° C.; ATP 200 μM; read-out: Potency (IC50), FGFR4 enzymatic assay.
T1 construct: human FGFR4 cytoplasmic domain (460-802); GST (N); purchased Carna Biosciences 08-136
T1 sequence (P22455 460-802): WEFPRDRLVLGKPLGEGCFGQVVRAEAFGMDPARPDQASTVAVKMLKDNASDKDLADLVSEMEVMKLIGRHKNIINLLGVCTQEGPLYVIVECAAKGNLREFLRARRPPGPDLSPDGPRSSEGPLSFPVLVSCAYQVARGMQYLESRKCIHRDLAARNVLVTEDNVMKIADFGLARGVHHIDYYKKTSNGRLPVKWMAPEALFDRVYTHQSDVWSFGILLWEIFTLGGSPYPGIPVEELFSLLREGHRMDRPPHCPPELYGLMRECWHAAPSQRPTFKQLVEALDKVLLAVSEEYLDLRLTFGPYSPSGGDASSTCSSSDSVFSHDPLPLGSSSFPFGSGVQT
Type: biochemical
Experimental: The ability of compounds to inhibit human FGFR4 tyrosine kinase activities was determined using a commercially available HTRF® KinEASE™-TK kit (CISBIO, Cat #62TK0PEC) according to the manufacturer's protocol. Wild-type human FGFR4 cytoplasmic domain (460-802) with N-terminal GST-tag was purchased from Carna Biosciences (Carna, Cat #08-136) and used in the kinase enzymatic assay. This assay, run in a 384-well plate format, is a generic method for measuring tyrosine kinase activities using one substrate and a universal detection system. It involves two steps: (1) Enzymatic step: the biotin labeled TK Substrate is incubated with the kinase and then ATP is added to start the enzymatic reaction; during this step, FGFR4 will phosphorylate the TK Substrate-biotin. (2) Detection step: The TK-Antibody labeled with Eu^3+-Cryptate can recognize the phosphorylated TK Substrate-biotin. When the streptavidin-XL665 conjugate binds the biotin, a FRET signal will be detected. Briefly, human FGFR4 (0.25 μg/ml) in the enzymatic buffer solutions (250 mM HEPES, pH7.0, 0.1% NaN3, 0.05% BSA, 0.5 mM Orthovanadate) were mixed with various concentrations of the test compound (dissolved in 100% DMSO). These solutions were incubated for 60 min at 25° C., and subsequently a mixture of substrate peptide and ATP was added with the final peptide and ATP concentrations at 0.3 μM and 200 μM respectively. The final reaction mixture of enzyme-substrate-ATP-compound was incubated for 40 min at 37° C. Meanwhile the detection mixture containing the TK-antibody and Streptavidin-XL665 diluted in the detection buffer (50 mM HEPES, pH7.0, with additives) was prepared, and added to the reaction mixture at final concentrations of 25 nM and 18.5 nM respectively. After incubation for 60 min at 25° C., the FRET signal of the final solution was measured at 665 nm and 612 nm emissions on a TECAN Spark 10M instrument (TECAN). The percent (%) inhibition at each concentration of a compound was calculated relative to the FRET signal in the Max and Min control wells contained within each assay plate. The Max control wells contained enzyme and substrate as 0% inhibition, and the Min control wells only contained substrate without enzyme as 100% inhibition. The concentrations and percent inhibition values for a test compound are plotted and the concentration of the compound required to achieve 50% inhibition (IC50) was determined with a four-parameter logistic dose response equation. Dose-response curves were generated using Prism (GraphPad Software, La Jolla, CA, US) to calculate IC50 values for each compound tested.

Row | Structure (SMILES) | IC50 [nM]
1 | C=C(C)C(=O)Nc1cnn(C)c1-c1n[nH]c2c1CCC(c1c(Cl)c(OC)cc(OC)c1Cl)C2 (single isomer, unassigned) [Compound S2-P1, N-(5-(6-(2,6-dichloro-3,5-Dimethoxyphenyl)-4,5,6,7-tetrahydro-1H-indazol-3-yl)-1-methyl-1H-pyrazol-4-yl) Methacrylamide] | > 100
2 | C=C(C)C(=O)Nc1cnn(C)c1-c1n[nH]c2c1CCC(c1c(Cl)c(OC)cc(OC)c1Cl)C2 (single isomer, unassigned) [Compound S2-P2, N-(5-(6-(2,6-dichloro-3,5-Dimethoxyphenyl)-4,5,6,7-tetrahydro-1H-indazol-3-yl)-1-methyl-1H-pyrazol-4-yl) Methacrylamide] | > 100
3 | C=CC(=O)NC1CCOCC1c1n[nH]c2c1CC[C@H](c1c(Cl)c(OC)cc(OC)c1Cl)C2 (single isomer, unassigned) [Compound S7-P1] | > 100
4 | C=CC(=O)NC1CCOCC1c1n[nH]c2c1CC[C@H](c1c(Cl)c(OC)cc(OC)c1Cl)C2 (single isomer, unassigned) [Compound S7-P2] | > 100
5 | C=CC(=O)Nc1cnn(CC(F)(F)F)c1-c1n[nH]c2c1CCC(c1c(F)c(OC)cc(OC)c1F)C2 (single isomer, unassigned) [Compound S18-P1, N-(5-(6-(2,6-difluoro-3,5-dimethoxyphenyl)-4,5,6,7-tetrahydro-1H-indazol-3-yl)-1-(2,2,2-trifluoroethyl)-1H-pyrazol-4-yl)acrylamide] | > 100
6 | C=CC(=O)Nc1cnn(CC(F)(F)F)c1-c1n[nH]c2c1CCC(c1c(F)c(OC)cc(OC)c1F)C2 (single isomer, unassigned) [Compound S18-P2, N-(5-(6-(2,6-difluoro-3,5-dimethoxyphenyl)-4,5,6,7-tetrahydro-1H-indazol-3-yl)-1-(2,2,2-trifluoroethyl)-1H-pyrazol-4-yl)acrylamide] | > 100
7 | COc1cc(OC)c(F)c(C2CCc3c(-c4c(NC(C)=O)cnn4C)n[nH]c3C2)c1F (single isomer, unassigned) [Compound S19-P1, N-(5-(6-(2,6-difluoro-3,5-dimethoxyphenyl)-4,5,6,7-tetrahydro-1H-indazol-3-yl)-1-methyl-1H-pyrazol-4-yl)acetamide] | > 100
8 | COc1cc(OC)c(F)c(C2CCc3c(-c4c(NC(C)=O)cnn4C)n[nH]c3C2)c1F (single isomer, unassigned) [Compound S19-P2, N-(5-(6-(2,6-difluoro-3,5-dimethoxyphenyl)-4,5,6,7-tetrahydro-1H-indazol-3-yl)-1-methyl-1H-pyrazol-4-yl)acetamide] | > 100
9 | CCC(=O)Nc1cnn(C)c1-c1n[nH]c2c1CCC(c1c(F)c(OC)cc(OC)c1F)C2 (single isomer, unassigned) [Compound S20-P1, N-(5-(6-(2,6-difluoro-3,5-dimethoxyphenyl)-4,5,6,7-tetrahydro-1H-indazol-3-yl)-1-methyl-1H-pyrazol-4-yl)propionamide] | > 100
10 | CCC(=O)Nc1cnn(C)c1-c1n[nH]c2c1CCC(c1c(F)c(OC)cc(OC)c1F)C2 (single isomer, unassigned) [Compound S20-P2, N-(5-(6-(2,6-difluoro-3,5-dimethoxyphenyl)-4,5,6,7-tetrahydro-1H-indazol-3-yl)-1-methyl-1H-pyrazol-4-yl)propionamide] | > 100
11 | C=C(F)C(=O)Nc1cnn(C)c1-c1n[nH]c2c1CCC(c1c(F)c(OC)cc(OC)c1F)C2 (single isomer, unassigned) [Compound S21-P1, N-(5-(6-(2,6-difluoro-3,5-dimethoxyphenyl)-4,5,6,7-tetrahydro-1H-indazol-3-yl)-1-methyl-1H-pyrazol-4-yl)-2-fluoroacrylamide] | > 100
12 | C=C(F)C(=O)Nc1cnn(C)c1-c1n[nH]c2c1CCC(c1c(F)c(OC)cc(OC)c1F)C2 (single isomer, unassigned) [Compound S21-P2, N-(5-(6-(2,6-difluoro-3,5-dimethoxyphenyl)-4,5,6,7-tetrahydro-1H-indazol-3-yl)-1-methyl-1H-pyrazol-4-yl)-2-fluoroacrylamide] | > 100
13 | C=CC(=O)N[C@H]1COC[C@H]1c1n[nH]c2c1CC[C@@H](c1c(Cl)c(OC)cc(OC)c1Cl)C2 [Compound S10-P1, N-((3R,4R)-4-((R)-6-(2,6-dichloro-3,5-dimethoxyphenyl)-4,5,6,7-tetrahydro-1H-indazol-3-yl)tetrahydrofuran-3-yl)acrylamide] | > 100
14 | C=CC(=O)N[C@@H]1COC[C@@H]1c1n[nH]c2c1CC[C@@H](c1c(Cl)c(OC)cc(OC)c1Cl)C2 [Compound S10-P2, N-((3S,4S)-4-((R)-6-(2,6-dichloro-3,5-dimethoxyphenyl)-4,5,6,7-tetrahydro-1H-indazol-3-yl)tetrahydrofuran-3-yl)acrylamide] | > 100
15 | C=CC(=O)N[C@@H]1COC[C@@H]1c1n[nH]c2c1CC[C@H](c1c(Cl)c(OC)cc(OC)c1Cl)C2 [Compound S10-P3, N-((3S,4S)-4-((S)-6-(2,6-dichloro-3,5-dimethoxyphenyl)-4,5,6,7-tetrahydro-1H-indazol-3-yl)tetrahydrofuran-3-yl)acrylamide] | > 100
16 | C=CC(=O)N[C@H]1COC[C@H]1c1n[nH]c2c1CC[C@H](c1c(Cl)c(OC)cc(OC)c1Cl)C2 [Compound S10-P4, N-((3R,4R)-4-((S)-6-(2,6-dichloro-3,5-dimethoxyphenyl)-4,5,6,7-tetrahydro-1H-indazol-3-yl)tetrahydrofuran-3-yl)acrylamide] | > 100
17 | C=CC(=O)N[C@H]1COC[C@H]1c1n[nH]c2c1CC[C@H](c1c(F)c(OC)cc(OC)c1F)C2 [Compound S13-P1, N-((3R,4R)-4-((S)-6-(2,6-difluoro-3,5-dimethoxyphenyl)-4,5,6,7-tetrahydro-1H-indazol-3-yl)tetrahydrofuran-3-yl)acrylamide] | > 100
18 | C=CC(=O)N[C@@H]1COC[C@@H]1c1n[nH]c2c1CC[C@H](c1c(F)c(OC)cc(OC)c1F)C2 [Compound S13-P2, N-((3S,4S)-4-((S)-6-(2,6-difluoro-3,5-dimethoxyphenyl)-4,5,6,7-tetrahydro-1H-indazol-3-yl)tetrahydrofuran-3-yl)acrylamide] | > 100
19 | C=CC(=O)N[C@H]1COC[C@H]1c1n[nH]c2c1CC[C@H](c1cc(OC)cc(OC)c1F)C2 [Compound S13-P3, N-((3R,4R)-4-((S)-6-(2-fluoro-3,5-dimethoxyphenyl)-4,5,6,7-tetrahydro-1H-indazol-3-yl)tetrahydrofuran-3-yl)acrylamide] | > 100
20 | C=CC(=O)N[C@@H]1COC[C@@H]1c1n[nH]c2c1CC[C@H](c1cc(OC)cc(OC)c1F)C2 [Compound S13-P4, N-((3S,4S)-4-((S)-6-(2-fluoro-3,5-dimethoxyphenyl)-4,5,6,7-tetrahydro-1H-indazol-3-yl)tetrahydrofuran-3-yl)acrylamide] | > 100
21 | C=CC(=O)Nc1cnn(CC)c1-c1n[nH]c2c1CC[C@@H](c1cc(OC)cc(OC)c1F)C2 [Compound S14-P3, (R)—N-(1-ethyl-5-(6-(2-fluoro-3,5-dimethoxyphenyl)-4,5,6,7-tetrahydro-1H-indazol-3-yl)-1H-pyrazol-4-yl) acrylamide] | > 100
22 | COC(=O)/C=C/C(=O)Nc1cnn(C)c1-c1n[nH]c2c1CC[C@H](c1c(F)c(OC)cc(OC)c1F)C2 [Compound S22, methyl (S,E)-4-((5-(6-(2,6-difluoro-3,5-dimethoxyphenyl)-4,5,6,7-tetrahydro-1H-indazol-3-yl)-1-methyl-1H-pyrazol-4-yl)amino)-4-oxobut-2-enoate] | > 100
23 | COc1cc(OC)c(F)c([C@H]2CCc3c(-c4c(NC(=O)/C=C/C(=O)OC(C)C)cnn4C)n[nH]c3C2)c1F [Compound S23, isopropyl (S,E)-4-((5-(6-(2,6-difluoro-3,5-dimethoxyphenyl)-4,5,6,7-tetrahydro-1H-indazol-3-yl)-1-methyl-1H-pyrazol-4-yl)amino)-4-oxobut-2-enoate] | > 100
24 | COc1cc(OC)c(F)c([C@H]2CCc3c(-c4c(NC(=O)C5CO5)cnn4C)n[nH]c3C2)c1F (stereo partly drawn) [Compound S24, N-(5-((S)-6-(2,6-difluoro-3,5-dimethoxyphenyl)-4,5,6,7-tetrahydro-1H-indazol-3-yl)-1-methyl-1H-pyrazol-4-yl)oxirane-2-carboxamide] | > 100
